Source: ChEMBL document CHEMBL4619725, “Ultrasounds-mediated 10-seconds synthesis of chalcones as potential farnesyltransferase inhibitors” (Bioorg Med Chem Lett, 2020)
pIC50: −log10 of the molar value. The source made the active and inactive calls. No cut-off for these calls is given here.

How the values were obtained:
Homo sapiens = organism: Homo sapiens; test: Inhibition of C-terminal His6-tagged human recombinat FTase expressed in Escherichia coli BL21 RIL (DE3) cells using Dansyl-GCVLS peptide and farnesyl pyrophosphate as substrate at 100 uM measured for 15 mins by fluorimetric analysis relative to control
SR = test: Cytostatic activity against human SR cells assessed as growth inhibition at 10 uM incubated for 48 hrs by sulforhodamine B assay relative to control; format: functional; settings: for inhibition of growth at 10 µM: read-out: GI
K562 = test: Cytostatic activity against human K562 cells assessed as growth inhibition at 10 uM incubated for 48 hrs by sulforhodamine B assay relative to control; format: functional; settings: K562, 48 h, read-out: GI
CCRF-CEM = test: Cytostatic activity against human CCRF-CEM cells assessed as growth inhibition at 10 uM incubated for 48 hrs by sulforhodamine B assay relative to control; format: functional; settings: for inhibition of growth at 10 µM: read-out: GI
RPMI-8226 = test: Cytostatic activity against human RPMI8226 cells assessed as growth inhibition at 10 uM incubated for 48 hrs by sulforhodamine B assay relative to control; format: functional; settings: for inhibition of growth at 10 µM: RPMI-8226, 48 h, read-out: GI
NCI-H522 = test: Cytostatic activity against human NCI-H522 cells assessed as growth inhibition at 10 uM incubated for 48 hrs by sulforhodamine B assay relative to control; format: functional; settings: NCI-H522, 48 h, read-out: GI
KM12 = test: Cytostatic activity against human KM12 cells assessed as growth inhibition at 10 uM incubated for 48 hrs by sulforhodamine B assay relative to control; format: functional; settings: for inhibition of growth at 10 µM: KM12, 48 h, read-out: GI
SW-620 [1] = test: Cytostatic activity against human SW620 cells assessed as growth inhibition at 10 uM incubated for 48 hrs by sulforhodamine B assay relative to control; format: functional; settings: for inhibition of growth at 10 µM: SW-620, 48 h, read-out: GI
HCT-116 = test: Cytostatic activity against human HCT116 cells assessed as growth inhibition at 10 uM incubated for 48 hrs by sulforhodamine B assay relative to control; format: functional; settings: for inhibition of growth at 10 µM: HCT-116, 48 h, read-out: GI
LOX IMVI = test: Cytostatic activity against human LOXIMVI cells assessed as growth inhibition at 10 uM incubated for 48 hrs by sulforhodamine B assay relative to control; format: functional; settings: for inhibition of growth at 10 µM: read-out: GI
OVCAR-3 = test: Cytostatic activity against human OVCAR3 cells assessed as growth inhibition at 10 uM incubated for 48 hrs by sulforhodamine B assay relative to control; format: functional; settings: for inhibition of growth at 10 µM: OVCAR-3, 48 h, read-out: GI
MCF7 = test: Cytostatic activity against human MCF7 cells assessed as growth inhibition at 10 uM incubated for 48 hrs by sulforhodamine B assay relative to control; format: functional; settings: MCF7, 48 h, read-out: GI
[2] = Inhibition of C-terminal His6-tagged human recombinat FTase expressed in Escherichia coli BL21 RIL (DE3) cells using Dansyl-GCVLS peptide and farnesyl pyrophosphate as substrate measured for 15 mins by fluorimetric analysis
SW-620 [3] = test: Cytotoxicity against human SW620 cells assessed as growth inhibition of preexisting tumor cells at 10 uM incubated for 48 hrs by sulforhodamine B assay relative to control; format: functional; settings: SW-620, 48 h, read-out: GI

Compound	inhibition (Homo sapiens) [%]	inhibition of growth at 10 µM (K562) [%]	inhibition of growth at 10 µM (CCRF-CEM) [%]	inhibition of growth at 10 µM (NCI-H522) [%]	inhibition of growth at 10 µM (KM12) [%]	inhibition of growth at 10 µM (SW-620 [1]) [%]	inhibition of growth at 10 µM (HCT-116) [%]	inhibition of growth at 10 µM (LOX IMVI) [%]	inhibition of growth at 10 µM (MCF7) [%]	pIC50 [2]	further results
O=C(CC(CC(=O)c1cccs1)c1ccc(Cl)cc1Cl)c1cccs1	0	25	7.9	17.3	4.8	4.4	34.7	10.9	10.2		inhibition of growth at 10 µM (SR): 9.7%; inhibition of growth at 10 µM (RPMI-8226): 17.3%; growth inhibition (GI) (OVCAR-3): inactive
O=C(/C=C/c1ccc(Cl)c(Cl)c1)c1cccs1	47	71.6	31.3	24.7	15.4	29.6	39.8	45.7	87.1		inhibition of growth at 10 µM (SR): 78%; inhibition of growth at 10 µM (RPMI-8226): 66.9%; inhibition of growth at 10 µM (OVCAR-3): 6.8%
O=C(c1cccs1)[C@H]1[C@H](c2ccc(Cl)cc2Cl)[C@@H](C(=O)c2cccs2)[C@](O)(c2cccs2)C[C@@H]1c1ccc(Cl)cc1Cl	11	16.5	22.3	18.5	4.7	12.7	21.2	3.1	18.3		inhibition of growth at 10 µM (SR): 10%; inhibition of growth at 10 µM (RPMI-8226): 26.8%; inhibition of growth at 10 µM (OVCAR-3): 11.5%
CCOC(=O)c1cc(C(=O)/C=C/c2ccc3c(c2)Sc2ccccc2N3C)n2ccccc12										8.05	
O=C(/C=C/c1ccc(Cl)cc1Cl)c1ccc(Cl)cc1Cl	69									4.41	
O=C(/C=C/c1cccs1)c1ccc(Cl)cc1Cl	70									4.68	
O=C(/C=C/c1ccc(Cl)c(Cl)c1)c1ccc(Cl)nc1	22	25.3	15.2	17	32.4	17.6	19.3	21.9	69.8		inhibition of growth at 10 µM (OVCAR-3): 11.2%
O=C(/C=C/c1ccc(Cl)nc1)c1cccs1	28	65.8	38.6	37.2	57.8	47.6	35.5	85	84.3		inhibition of growth at 10 µM (OVCAR-3): 45.8%
O=C(/C=C/c1ccc(Cl)c(Cl)c1)c1ccc(Cl)c(Cl)c1	60	9.7	3.7	8.1			6.1		14.2	4.02	inhibition of growth at 10 µM (SR): 6.1%; inhibition of growth at 10 µM (RPMI-8226): 7.2%; growth inhibition (GI) (KM12): inactive; growth inhibition (GI) (SW-620 [1]): inactive; growth inhibition (GI) (LOX IMVI): inactive; growth inhibition (GI) (OVCAR-3): inactive
O=C(CC(O)c1cccs1)c1cccs1 (racemic)	86									6.22	
CCOc1ccc(C(=O)/C=C/c2cccs2)cn1	86									4.60	
O=C(/C=C/c1ccc(Cl)nc1)c1ccc(Cl)nc1	26	6.1	3.1	5.3	1				8.8		growth inhibition (GI) (SW-620 [1]): inactive; growth inhibition (GI) (HCT-116): inactive; growth inhibition (GI) (LOX IMVI): inactive; growth inhibition (GI) (OVCAR-3): inactive
O=C(/C=C/c1ccc(Cl)cc1Cl)c1ccc(Cl)nc1	39	18.9	6.5	24.2	3.6	7.9	56.6	65.1	63.4		inhibition of growth at 10 µM (SR): 55.7%; inhibition of growth at 10 µM (RPMI-8226): 8.9%; growth inhibition (GI) (OVCAR-3): inactive
O=C(/C=C/c1ccc(Cl)cc1Cl)c1ccc(Cl)c(Cl)c1	74	2.4		11.4	0.3		13.9		28.3	5.06	inhibition of growth at 10 µM (SR): 2.8%; growth inhibition (GI) (CCRF-CEM): inactive; inhibition of growth at 10 µM (RPMI-8226): 5.4%; growth inhibition (GI) (SW-620 [1]): inactive; growth inhibition (GI) (LOX IMVI): inactive; growth inhibition (GI) (OVCAR-3): inactive
O=C(CC(CC(=O)c1ccc(Cl)nc1)c1cccs1)c1ccc(Cl)nc1	19										
O=C(/C=C/c1ccc(Cl)nc1)c1ccc(Cl)cc1Cl	53	92.3	93	61.3	23.5	100	63.3	93.5	82.9		inhibition of growth at 10 µM (OVCAR-3): 21.5%; inhibition of growth at 10 µM (SW-620 [3]): 33.2%
O=C(/C=C/c1ccc(Cl)c(Cl)c1)c1ccc(Cl)cc1Cl	53										
O=C(/C=C/c1cccs1)c1cccs1	100									4.92	
CCCCCCCCCCCCCC/C(C(=O)O)=C(\C)C(=O)O [CHAETOMELLIC ACID A]	100									6.74	
O=C(c1cccs1)[C@H]1[C@H](c2cccs2)[C@@H](C(=O)c2cccs2)[C@](O)(c2cccs2)C[C@@H]1c1cccs1	2	14.5	5	15.3	3.4		6.1	7.8	12.2		inhibition of growth at 10 µM (SR): 7.9%; inhibition of growth at 10 µM (RPMI-8226): 17.7%; growth inhibition (GI) (SW-620 [1]): inactive; growth inhibition (GI) (OVCAR-3): inactive
O=C(/C=C/c1ccc(Cl)nc1)c1ccc(Cl)c(Cl)c1	54	48.3	26.6	45.8	44.4	40.1	55.1	37.6	66.4		inhibition of growth at 10 µM (OVCAR-3): 43.5%
O=C(/C=C/c1cccs1)c1ccc(Cl)nc1		2.9	8.6	18			8.9		32.3		inhibition of growth at 10 µM (SR): 17.5%; inhibition of growth at 10 µM (RPMI-8226): 95.8%; growth inhibition (GI) (KM12): inactive; growth inhibition (GI) (SW-620 [1]): inactive; growth inhibition (GI) (LOX IMVI): inactive; growth inhibition (GI) (OVCAR-3): inactive
Cn1cncc1[C@@](N)(c1ccc(Cl)cc1)c1ccc2c(c1)c(-c1cccc(Cl)c1)cc(=O)n2C [TIPIFARNIB]										8.10	
O=C(CC(CC(=O)c1ccc(Cl)nc1)c1ccc(Cl)nc1)c1ccc(Cl)nc1	4										
CCOc1ccc([C@]2(O)C[C@H](c3cccs3)[C@@H](C(=O)c3ccc(Cl)nc3)[C@H](c3cccs3)[C@H]2C(=O)c2ccc(Cl)nc2)cn1	24										
O=C(/C=C/c1ccc(Cl)cc1Cl)c1cccs1	84									4.59	
O=C(/C=C/c1cccs1)c1ccc(Cl)c(Cl)c1	98	1.7		8.6	2.8	5.5	2.2		72.5	5.13	growth inhibition (GI) (SR): inactive; growth inhibition (GI) (CCRF-CEM): inactive; growth inhibition (GI) (RPMI-8226): inactive; growth inhibition (GI) (LOX IMVI): inactive; growth inhibition (GI) (OVCAR-3): inactive
